Laboratory results: patent US20070117770A1, “Human ribosomal DNA (rDNA) and ribosomal RNA (rRNA) nucleic acids and uses thereof” (Cylene Pharmaceuticals, Inc., priority 2005, published 2007)

Legend:
[1] = target: cSRC(h) (Homo sapiens, UniProt P12931); assay: Protein kinase inhibition assay; assay type: biochemical; settings: read-out: percent residual activity of cSRC(h)
Method: (§1) Certain compounds were tested for activity in protein kinase inhibition assays. All substrates were dissolved and diluted to working stocks in de-ionized water, apart from histone H1 (10× working stock in 20 mM MOPS pH 7.0), PDKtide (10× working stock in 50 mM Tris pH 7.0) ATF2 (which is typically stored at a 20× working stock in 50 mM Tris pH 7.5, 150 mM NaCl, 0.1 mM EGTA, 0.03% Brij-35, 50% glycerol, 1 mM benzamidine, 0.2 mM PMSF and 0.1% R-mercaptoethanol), KKLNRTLSFAEPG (SEQ ID NO:203) and RRRLSFAEPG (SEQ ID NO:204) (50 mM HEPES pH 7.4) and GGEEEEYFELVKKKK (SEQ ID NO:205) (20 mM MOPS pH 7.0). All kinases were pre-diluted to a 10× working concentration prior to addition into the assay. The composition of the dilution buffer for each kinase is detailed below.
In a final reaction volume of 25 μl, cSRC (h) (5-10 mU) is incubated with 8 mM MOPS pH 7.0, 0.2 mM EDTA, 250 μM KVEKIGEGTYGVVYK (SEQ ID NO:211) (Cdc2 peptide), 10 mM MgAcetate and [y-33P-ATP] (specific activity approx. 500 cpm/pmol, concentration as required). The reaction is initiated by the addition of the MgATP mix. After incubation for 40 minutes at room temperature, the reaction is stopped by the addition of 5 μl of a 3% phosphoric acid solution. […]

[2] = target: JAK2(h) (Homo sapiens, UniProt O60674); assay: Protein kinase inhibition assay; assay type: biochemical; settings: read-out: percent residual activity of JAK2(h)
Sequence of JAK2(h) (O60674 whole entry): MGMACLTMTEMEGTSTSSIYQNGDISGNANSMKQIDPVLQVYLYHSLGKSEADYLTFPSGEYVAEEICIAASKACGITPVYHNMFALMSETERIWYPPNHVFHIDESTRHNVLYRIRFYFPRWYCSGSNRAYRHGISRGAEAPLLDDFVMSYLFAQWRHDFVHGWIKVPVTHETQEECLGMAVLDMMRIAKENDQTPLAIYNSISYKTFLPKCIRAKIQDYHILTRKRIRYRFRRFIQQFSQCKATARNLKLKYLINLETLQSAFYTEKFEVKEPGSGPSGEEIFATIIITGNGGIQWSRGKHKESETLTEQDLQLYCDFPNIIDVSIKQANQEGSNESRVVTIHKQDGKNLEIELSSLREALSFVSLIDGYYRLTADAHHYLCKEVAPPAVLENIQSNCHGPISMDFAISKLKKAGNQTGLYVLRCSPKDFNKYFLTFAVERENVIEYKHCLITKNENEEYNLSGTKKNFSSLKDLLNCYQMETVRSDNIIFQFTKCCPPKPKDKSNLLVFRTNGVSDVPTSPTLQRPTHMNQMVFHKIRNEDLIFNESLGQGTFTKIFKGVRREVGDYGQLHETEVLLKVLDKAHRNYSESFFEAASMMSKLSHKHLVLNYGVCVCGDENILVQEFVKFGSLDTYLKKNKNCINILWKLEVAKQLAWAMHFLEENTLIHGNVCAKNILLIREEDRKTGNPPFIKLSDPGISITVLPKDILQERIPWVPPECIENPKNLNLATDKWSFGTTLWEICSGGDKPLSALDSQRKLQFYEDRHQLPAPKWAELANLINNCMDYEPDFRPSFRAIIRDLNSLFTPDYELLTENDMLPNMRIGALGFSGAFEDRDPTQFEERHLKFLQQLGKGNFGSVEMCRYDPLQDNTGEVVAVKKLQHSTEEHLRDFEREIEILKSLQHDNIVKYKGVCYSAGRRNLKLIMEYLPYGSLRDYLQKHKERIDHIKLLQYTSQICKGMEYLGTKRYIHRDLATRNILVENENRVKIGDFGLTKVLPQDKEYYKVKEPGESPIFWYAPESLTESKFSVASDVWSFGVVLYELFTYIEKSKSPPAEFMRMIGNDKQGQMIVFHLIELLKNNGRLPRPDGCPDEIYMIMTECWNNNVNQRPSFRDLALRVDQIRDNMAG
Method: as §1
In a final reaction volume of 25 μl, JAK2 (h) (5-10 mU) is incubated with 8 mM MOPS pH 7.0, 0.2 mM EDTA, 100 μM […] (SEQ ID NO:217), 10 mM MgAcetate and [gamma-33P-ATP] (specific activity approx. 500 cpm/pmol, concentration as required). The reaction is initiated by the addition of the MgATP mix. After incubation for 40 minutes at room temperature, the reaction is stopped by the addition of 5 μl of a 3% phosphoric acid solution. 10 μl of the reaction is then spotted onto a P30 filtermat and washed three times for 5 minutes in 75 mM phosphoric acid and once in methanol prior to drying and scintillation counting.

[3] = target: T1, nucleolin/HP pre-rRNA region (Homo sapiens, UniProt P19338); assay: EMSA, nucleolin/HP ligand interaction; assay type: binding; settings: nucleolin ~250 nM, 32P-labeled ligand 10 or 250 nM, 30 minutes (FIG. 1, FIG. 2)
T1 construct: without the N-terminal acidic stretches domain
T1 sequence (P19338 284-710 limits assumed): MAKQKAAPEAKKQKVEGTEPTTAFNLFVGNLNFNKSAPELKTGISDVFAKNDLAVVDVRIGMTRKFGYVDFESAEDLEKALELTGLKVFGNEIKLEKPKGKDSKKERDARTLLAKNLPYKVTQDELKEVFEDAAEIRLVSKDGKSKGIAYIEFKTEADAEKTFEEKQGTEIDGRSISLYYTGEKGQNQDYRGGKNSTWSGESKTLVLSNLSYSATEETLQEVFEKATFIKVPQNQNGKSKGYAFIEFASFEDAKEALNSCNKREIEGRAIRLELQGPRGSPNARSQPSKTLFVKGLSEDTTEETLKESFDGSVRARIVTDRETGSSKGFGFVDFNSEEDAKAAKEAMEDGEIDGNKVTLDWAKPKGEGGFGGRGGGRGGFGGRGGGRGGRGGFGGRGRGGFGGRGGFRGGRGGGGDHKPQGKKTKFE
Method: The following assays assessed effects of compounds on interactions between nucleolin and nucleic acid ligands capable of forming quadruplex (QP) and hairpin (HP) secondary structures. Nucleic acid ligands tested were a cMyc QP DNA having nucleotide sequence 5′-[…]-3′ (SEQ ID NO: 176) and a HP pre-rRNA region to which nucleolin binds, having the sequence 5′-[…]-3′ (SEQ ID NO: 177). In the assays, recombinant nucleolin (˜250 nM), which was fused to maltose binding protein and had the sequence under accession number NM_005381 without the N-terminal acidic stretches domain, was incubated with each of the two ^32P-labeled nucleic acid ligands (10 or 250 nM). Nucleolin and the nucleic acid ligand were incubated in the presence or absence of a test compound of Formula A-1, B-1, C-6 or C-7 in an incubation buffer (12.5 mM Tris, pH 7.6, 60 mM KCl, 1 mM MgCl2, 0.1 mM EDTA, 1 mM DTT, 5% glycerol, 0.1 mg/ml BSA) for 30 minutes at room temperature. Structures for A-1 and B-1 are shown above and structures for C-6 and C-7 are shown hereafter: [drawing 17] The resulting complexes were separated on a 6% DNA retardation gel using 0.5× TBE with 20 mM KCl as a running buffer (i.e., electrophoresis mobility shift assay (EMSA)).

[4] = target: PDK1(h) (Homo sapiens, UniProt O15530); assay: Protein kinase inhibition assay; assay type: biochemical; settings: read-out: percent residual activity of PDK1(h)
Sequence of PDK1(h) (O15530 whole entry): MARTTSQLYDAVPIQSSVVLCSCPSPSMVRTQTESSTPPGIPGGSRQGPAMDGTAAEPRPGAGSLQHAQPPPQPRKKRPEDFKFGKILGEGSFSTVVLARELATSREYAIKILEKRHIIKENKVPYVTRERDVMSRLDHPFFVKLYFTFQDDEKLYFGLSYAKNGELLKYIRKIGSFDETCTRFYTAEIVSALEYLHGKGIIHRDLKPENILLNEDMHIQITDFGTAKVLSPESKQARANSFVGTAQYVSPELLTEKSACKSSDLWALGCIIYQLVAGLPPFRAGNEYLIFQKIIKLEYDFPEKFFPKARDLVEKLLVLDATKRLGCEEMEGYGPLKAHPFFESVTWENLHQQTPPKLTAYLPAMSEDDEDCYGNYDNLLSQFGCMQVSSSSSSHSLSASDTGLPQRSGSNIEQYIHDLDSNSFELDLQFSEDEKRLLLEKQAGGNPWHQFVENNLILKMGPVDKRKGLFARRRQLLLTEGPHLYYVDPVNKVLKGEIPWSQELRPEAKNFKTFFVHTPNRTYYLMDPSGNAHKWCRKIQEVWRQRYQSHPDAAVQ
Method: as §1
In a final reaction volume of 25 μl, PDK1 (h) (5-10 mU) is incubated with 50 mM Tris pH 7.5, 100 μM […] (SEQ ID NO:217) (PDKtide), 0.1% R-mercaptoethanol, 10 mM MgAcetate and [gamma-33P-ATP] (specific activity approx. 500 cpm/pmol, concentration as required). The reaction is initiated by the addition of the MgATP mix. After incubation for 40 minutes at room temperature, the reaction is stopped by the addition of 5 μl of a 3% phosphoric acid solution. […]

[5] = target: Pyk2(h) (Homo sapiens, UniProt Q14289); assay: Protein kinase inhibition assay; assay type: biochemical; settings: read-out: percent residual activity of Pyk2(h)
Sequence of Pyk2(h) (Q14289 whole entry): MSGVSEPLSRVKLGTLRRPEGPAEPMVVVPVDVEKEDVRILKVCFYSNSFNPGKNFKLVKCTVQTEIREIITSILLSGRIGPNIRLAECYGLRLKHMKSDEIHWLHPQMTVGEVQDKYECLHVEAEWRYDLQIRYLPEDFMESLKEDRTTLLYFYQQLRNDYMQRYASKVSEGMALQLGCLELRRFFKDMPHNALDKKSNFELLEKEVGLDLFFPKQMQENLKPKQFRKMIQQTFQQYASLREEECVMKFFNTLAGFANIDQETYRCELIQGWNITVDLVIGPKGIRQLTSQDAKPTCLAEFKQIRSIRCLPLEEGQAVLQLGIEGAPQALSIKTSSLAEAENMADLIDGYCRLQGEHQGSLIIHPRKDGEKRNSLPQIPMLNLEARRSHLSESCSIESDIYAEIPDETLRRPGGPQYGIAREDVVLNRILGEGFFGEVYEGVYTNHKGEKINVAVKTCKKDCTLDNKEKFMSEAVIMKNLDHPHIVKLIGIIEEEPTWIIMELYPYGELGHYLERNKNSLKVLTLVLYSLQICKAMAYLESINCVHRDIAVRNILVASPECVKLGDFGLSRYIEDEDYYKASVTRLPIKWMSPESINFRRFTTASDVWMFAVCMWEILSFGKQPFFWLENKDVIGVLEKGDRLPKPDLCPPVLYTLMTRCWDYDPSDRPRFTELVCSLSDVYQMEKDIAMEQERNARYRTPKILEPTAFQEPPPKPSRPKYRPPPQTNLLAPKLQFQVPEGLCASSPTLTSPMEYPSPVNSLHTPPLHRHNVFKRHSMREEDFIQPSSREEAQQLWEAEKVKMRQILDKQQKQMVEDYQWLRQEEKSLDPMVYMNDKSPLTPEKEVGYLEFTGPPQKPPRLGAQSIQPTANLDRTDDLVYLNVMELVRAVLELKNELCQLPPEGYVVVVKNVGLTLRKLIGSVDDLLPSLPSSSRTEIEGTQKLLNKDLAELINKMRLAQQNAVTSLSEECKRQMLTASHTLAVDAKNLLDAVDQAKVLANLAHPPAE
Method: as §1
(§2) In a final reaction volume of 25 μl, Pyk2 (h) (5-10 mU) is incubated with 8 mM MOPS pH 7.0, 0.2 mM EDTA, 0.1 mg/ml poly(Glu, Tyr) 4:1, 10 mM MgAcetate and [gamma-33P-ATP] (specific activity approx. 500 cpm/pmol, concentration as required). The reaction is initiated by the addition of the MgATP mix. After incubation for 40 minutes at room temperature, the reaction is stopped by the addition of 5 μl of a 3% phosphoric acid solution. 10 μl of the reaction is then spotted onto a Filtermat A and washed three times for 5 minutes in 75 mM phosphoric acid and once in methanol prior to drying and scintillation counting.

[6] = target: CDK5/p35(h) (Homo sapiens, UniProt Q00535); assay: Protein kinase inhibition assay; assay type: biochemical; settings: read-out: percent residual activity of CDK5/p35(h)
Sequence of CDK5/p35(h) (Q00535 whole entry): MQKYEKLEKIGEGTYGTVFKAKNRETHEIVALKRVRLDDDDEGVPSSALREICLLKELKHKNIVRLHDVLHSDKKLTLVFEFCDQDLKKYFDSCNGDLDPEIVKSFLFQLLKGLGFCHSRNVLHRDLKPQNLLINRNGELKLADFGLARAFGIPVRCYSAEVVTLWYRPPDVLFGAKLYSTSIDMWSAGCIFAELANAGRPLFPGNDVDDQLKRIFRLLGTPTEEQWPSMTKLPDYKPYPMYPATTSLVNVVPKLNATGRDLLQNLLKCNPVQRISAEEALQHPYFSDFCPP
Sequence of CDK5/p35(h) (Q15078 whole entry partner): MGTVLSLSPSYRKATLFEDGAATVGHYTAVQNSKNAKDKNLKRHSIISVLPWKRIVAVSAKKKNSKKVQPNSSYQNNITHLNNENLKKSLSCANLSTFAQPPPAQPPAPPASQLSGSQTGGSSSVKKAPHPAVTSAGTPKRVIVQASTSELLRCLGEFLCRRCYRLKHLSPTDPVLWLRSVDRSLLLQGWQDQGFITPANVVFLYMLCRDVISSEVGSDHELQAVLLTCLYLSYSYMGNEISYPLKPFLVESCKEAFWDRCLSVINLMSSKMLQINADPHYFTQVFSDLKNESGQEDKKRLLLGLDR
Method: as §1
as §2, with “CDK5/p35” for “Pyk2”, “histone H1,” for “poly(Glu, Tyr) 4:1,”, “P30 filtermat” for “Filtermat A”

Sequence of cSRC(h) (P12931 whole entry): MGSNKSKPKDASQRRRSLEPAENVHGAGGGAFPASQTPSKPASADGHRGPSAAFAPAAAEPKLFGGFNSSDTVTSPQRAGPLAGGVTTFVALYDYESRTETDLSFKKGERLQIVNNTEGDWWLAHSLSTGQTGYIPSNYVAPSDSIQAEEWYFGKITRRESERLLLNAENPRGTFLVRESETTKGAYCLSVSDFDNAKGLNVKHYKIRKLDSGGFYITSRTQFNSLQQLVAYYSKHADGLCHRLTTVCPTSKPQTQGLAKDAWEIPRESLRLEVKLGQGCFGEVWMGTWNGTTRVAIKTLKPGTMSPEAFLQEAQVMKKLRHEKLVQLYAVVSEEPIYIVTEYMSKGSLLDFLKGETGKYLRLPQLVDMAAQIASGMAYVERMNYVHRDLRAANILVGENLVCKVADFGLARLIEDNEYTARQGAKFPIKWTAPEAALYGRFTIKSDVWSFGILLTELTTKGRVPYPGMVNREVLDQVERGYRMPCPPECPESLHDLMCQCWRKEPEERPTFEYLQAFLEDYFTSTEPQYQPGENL

SMILES | remaining activity at 2.5 µM [1] [%] | remaining activity at 2.5 µM [2] [%] | interference with the nucleolin/HP ligand interaction [3] | remaining activity at 2.5 µM [4] [%] | remaining activity at 2.5 µM [5] [%] | remaining activity at 2.5 µM [6] [%]
CN1CCCC1CCNC(=O)c1cn2c3c(c(N4CCC(c5cnccn5)C4)c(F)cc3c1=O)Oc1cc3ccccc3cc1-2 (stereo not drawn) [Compound A-1] | 33 | 105 | did not significantly interfere with the nucleolin/HP ligand interaction | 121 | 95 | 83
CC(=O)N1CCN(c2ccc3c(=O)c(C(=O)NCCN4CCCC4)c4n(C)c5ccccc5n4c3n2)CC1 [Compound B-1] | 137 | 116 | did not significantly interfere with the nucleolin/HP interaction | 109 | 105 | 104
